Reference: patent US20180044343A1, “BICYCLIC IMIDAZOLO DERIVATIVE” (Sumitomo Dainippon Pharma Co., Ltd., priority 2015, published 2018)

molecular target: PDE1B (Homo sapiens, UniProt Q01064); assay: In vitro HTRF PDE1 inhibition assay (PDE1B); format: biochemical; conditions: in vitro PDE1B HTRF Assay; read-out: IC50
Sequence (Q01064 whole entry): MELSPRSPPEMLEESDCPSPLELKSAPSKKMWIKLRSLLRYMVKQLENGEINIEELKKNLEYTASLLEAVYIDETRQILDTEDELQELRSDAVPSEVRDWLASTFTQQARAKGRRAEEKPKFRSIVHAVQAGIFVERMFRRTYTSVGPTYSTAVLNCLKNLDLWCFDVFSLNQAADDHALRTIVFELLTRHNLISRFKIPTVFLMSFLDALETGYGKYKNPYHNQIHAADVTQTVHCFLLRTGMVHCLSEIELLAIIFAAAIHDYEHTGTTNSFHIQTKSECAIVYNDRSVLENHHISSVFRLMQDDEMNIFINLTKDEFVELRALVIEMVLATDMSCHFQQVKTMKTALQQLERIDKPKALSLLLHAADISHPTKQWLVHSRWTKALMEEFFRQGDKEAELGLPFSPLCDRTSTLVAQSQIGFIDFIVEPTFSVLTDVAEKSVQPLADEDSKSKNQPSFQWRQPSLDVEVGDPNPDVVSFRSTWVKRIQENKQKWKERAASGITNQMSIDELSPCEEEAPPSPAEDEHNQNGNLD
From the text: The HTRF PDE1 assay utilized the HTRF (Homogenous Time Resolved Fluorescence) technology, which is based on the competition between unlabeled cyclic nucleotide and cyclic nucleotide labeled with XL665 for the binding to cyclic nucleotide-specific antibody labeled with cryptate. The HTRF signal is thus inversely proportional to the concentration of cyclic nucleotide being measured. Since phosphodiesterases break down cyclic nucleotides, the HTRF signal was used to determine PDE activity.
The Cisbio cGMP HTRF assay kit (Cat no: 62GM2PEC) was utilized. Cyclic GMP was diluted to 200 nM in HTRF assay buffer (1 mM CaCl2, 10 mM MgCl2, 10 mM Tris-HCl, 0.1% BSA, pH 7.4). […] PDE (1A3, 1B or 1C) was diluted to 2× working concentration in HTRF assay buffer with 2 μg/ml Calmodulin, and 10 μl was added to initiate the reaction. The plate was then incubated for 45 minutes at 27° C. d2-Labelled cyclic GMP and anti-cGMP cryptate were diluted in 50 mM phosphate buffer, 0.8 M KF, 1% Triton X100, 0.2% BSA, pH 7.0. Following incubation 10 μl d2-cGMP, then 10 μl anti cGMP cryptate were added to each well and the plate was incubated for 60 minutes at room temperature. The plate was then read on Perkin Elmer EnVision at 2 different FRET readings ex/em 340 nm/665 nm and 340 nm/615 nm.

SMILES	IC50 [nM]
CC(C)c1ncc2c(=O)n(C)c(COc3ccc(F)cc3)nn12 [Example 226]	< 1000
Cn1c(OCc2ccc(C(F)(F)F)cc2)nn2c(C3CCOCC3)ncc2c1=O [Example 292]	< 1000
O=c1[nH]c(N2CCC[C@H]2c2ccccc2)nn2c(C3CCOCC3)ncc12 [Example 126]	< 1000
CC(C)c1ncc2c(=O)[nH]c(N3CCC[C@@H]3c3ccccc3)nn12 [Example 130]	< 1000
CCn1c(N2CCCC2)nn2c(C3CCOCC3)ncc2c1=O [Example 198]	< 1000
CCn1c(OCCc2ccc(F)cc2)nn2c(C3CCOCC3)ncc2c1=O [Example 70]	< 1000
Cn1c(CCc2ccc(F)cc2)nn2c(C3CCOCC3)ncc2c1=O [Example 241, 2-[2-(4-Fluorophenyl)ethyl]-3-methyl-7-(tetrahydro-2H-pyran-4-yl)imidazo[5,1-f][1,2,4]triazin-4(3H)-one]	< 1000
CCn1c(OCCCc2cccnc2)nn2c(C3CCOCC3)ncc2c1=O [Example 68]	< 1000
Cn1c(N2CCCCC2)nn2c(C3CCOCC3)ncc2c1=O [Example 184]	< 1000
Cc1ccc(COc2nn3c(C4CCOCC4)ncc3c(=O)n2C)cc1 [Example 27]	< 1000
COc1nn2c(C3CCOCC3)ncc2c(=O)n1CC(C)C [Example 271]	< 1000
CN(Cc1nn2c(C3CCCC3)ncc2c(=O)n1C)c1ccc(C(F)(F)F)cc1 [Example 235]	< 1000
Cc1ccc(CNc2nn3c(C(C)C)ncc3c(=O)n2C)cn1 [Example 155]	< 1000
Cn1c(N2CC[C@@H](Oc3ccc(F)cn3)C2)nn2c(C3CCOCC3)ncc2c1=O [Example 189]	< 1000
CCn1c(OC[C@H]2CC[C@H](COC)CC2)nn2c(C3CCOCC3)ncc2c1=O [Example 287]	< 1000
CC(C)c1ncc2c(=O)n(C)c(N3CCC[C@@H]3c3ccc(Cl)cc3)nn12 [Example 164]	< 1000
CCn1c(OCCCc2ncccc2C)nn2c(C3CCOCC3)ncc2c1=O [Example 71]	< 1000
CCn1c(OCc2ccc(-c3ccccn3)cc2)nn2c(C3CCOCC3)ncc2c1=O [Example 67]	< 1000
CCn1c(COC2CCC(F)(F)CC2)nn2c(C3CCOCC3)ncc2c1=O [Example 260, 2-{[(4,4-Difluorocyclohexyl)oxy]methyl}-3-ethyl-7-(tetrahydro-2H-pyran-4-yl)imidazo[5,1-f][1,2,4]triazin-4(3H)-one]	< 1000

SMILES	IC50 [nM]
CCn1c(OC2CCCC2)nn2c(C3CCOCC3)ncc2c1=O [Example 300]	< 1000
CCn1c(OCc2ccc(F)cc2)nn2c(C3CCOCC3)ncc2c1=O [Example 56]	< 1000
CC(C)c1ncc2c(=O)n(C)c(NCc3ncccc3F)nn12 [Example 160]	< 1000
CC(C)c1ncc2c(=O)n(C)c(COc3ccc(Cl)cc3)nn12 [Example 223, 2-[(4-Chlorophenoxy)methyl]-3-methyl-7-(propan-2-yl)imidazo[5,1-f][1,2,4]triazin-4(3H)-one]	1000 to 10000
COc1nn2c(C3CCOCC3)ncc2c(=O)n1Cc1ccc(F)cc1 [Example 108]	< 1000
Cn1c(O[C@H]2CC[C@H](O)CC2)nn2c(C3CCOCC3)ncc2c1=O [Example 301]	< 1000
Cc1ccc(CNc2nn3c(C4CCOCC4)ncc3c(=O)n2C)c(F)c1 [Example 136, 2-[(2-Fluoro-4-methylbenzyl)amino]-3-methyl-7-(tetrahydro-2H-pyran-4-yl)imidazo[5,1-f][1,2,4]triazin-4(3H)-one]	< 1000
CCn1c(NCc2ccc(F)cn2)nn2c(C(C)C)ncc2c1=O [Example 171]	< 1000
Cn1c(OCc2ccncc2)nn2c(C3CCOCC3)ncc2c1=O [Example 25]	< 1000
Cn1c(NCc2ccc(Cl)cn2)nn2c(C3CCC3)ncc2c1=O [Example 205]	< 1000
CCn1c(OCc2ccc(OC)cc2)nn2c(C3CCOCC3)ncc2c1=O [Example 54]	< 1000
CCn1c(NCc2ncccc2F)nn2c(C(C)C)ncc2c1=O [Example 174]	< 1000
CCn1c(OCc2ccc(F)c(F)c2)nn2c(C3CCOCC3)ncc2c1=O [Example 59]	< 1000
Cn1c(OC[C@H]2CC[C@H](C(F)(F)F)CC2)nn2c(C3=CCOCC3)ncc2c1=O [Example 328, 7-(3,6-dihydro-2H-pyran-4-yl)-3-methyl-2-{[trans-4-(trifluoromethyl)cyclohexyl]methoxy}-imidazo[5,1-f][1,2,4]triazin-4(3H)-one]	< 1000
Cn1c(OCc2ccc(-c3ccc(F)cn3)cc2)nn2c(C3CCOCC3)ncc2c1=O [Example 53]	< 1000
CCn1c(OCC2CCC(F)(F)CC2)nn2c(C3CCOCC3)nc(Cl)c2c1=O [Example 119, 5-chloro-2-[(4,4-difluorocyclohexyl)methoxy]-3-ethyl-7-(tetrahydro-2H-pyran-4-yl)-imidazo[5,1-f][1,2,4]triazin-4(3H)-one]	< 1000
CC(C)c1ncc2c(=O)n(C)c(OCc3ccc(F)cc3)nn12 [Example 14]	< 1000
COC1CCN(c2nn3c(C4CCOCC4)ncc3c(=O)n2C)CC1 [Example 191]	< 1000
CCn1c(OCCCc2ncccc2F)nn2c(C3CCOCC3)ncc2c1=O [Example 65]	< 1000

SMILES	IC50 [nM]
CCn1c(OCCCOC)nn2c(C3CCOCC3)ncc2c1=O [Example 62]	< 1000
Cc1ccc([C@H]2CCCN2c2nn3c(C(C)C)ncc3c(=O)n2C)cc1 [Example 165]	< 1000
CC(C)c1ncc2c(=O)n(C)c(NC(C)(C)c3ccccn3)nn12 [Example 162]	1000 to 10000
CCn1c(OCCc2ccccn2)nn2c(C3CCOCC3)ncc2c1=O [Example 64]	< 1000
CN(C)CC(=O)N1CCCN(c2nn3c(C4CCOCC4)ncc3c(=O)n2C)CC1 [Example 222, 2-{4-[(Dimethylamino)acetyl]-1,4-diazepan-1-yl}-3-methyl-7-(tetrahydro-2H-pyran-4-yl)imidazo[5,1-f][1,2,4]triazin-4(3H)-one]	10000 to 100000
CC(C)c1ncc2c(=O)[nH]c(N3CCCC3c3cccc(Cl)c3)nn12 (centres unmarked) [Example 133]	< 1000
CC(C)c1ncc2c(=O)n(C)c(OCC(F)(F)F)nn12 [Example 9]	< 1000
CC(C)c1ncc2c(=O)n(C)c(NCCc3ccccn3)nn12 [Example 151]	< 1000
Cn1c(OCC2(C(F)(F)F)CCCCC2)nn2c(C3CCOCC3)ncc2c1=O [Example 297]	< 1000
CCn1c(OCCc2ccccc2F)nn2c(C3CCOCC3)ncc2c1=O [Example 74]	< 1000
COc1nn2c(C3CCOCC3)ncc2c(=O)n1CC1CCC1 [Example 273]	< 1000
CCn1c(OCCC2CCC(F)(F)CC2)nn2c(C3CCOCC3)ncc2c1=O [Example 93]	< 1000
COc1nn2c(C3CCOCC3)nc(C)c2c(=O)n1CC1CCC(F)(F)CC1 [Example 122]	< 1000
Cc1ccc(CCCOc2nn3c(C4CCOCC4)ncc3c(=O)n2C)nc1 [Example 42]	< 1000
O=c1c2cnc(C3CCOCC3)n2nc(N2CCCC2)n1CCC1CCOCC1 [Example 215]	10000 to 100000
CC(C)c1ncc2c(=O)n(C)c(NCc3ccccn3)nn12 [Example 150]	< 1000
CCn1c(OCc2ccccc2)nn2c(C(C)C)ncc2c1=O [Example 17]	< 1000
CCn1c(OCC2CCCCC2)nn2c(C3CCOCC3)ncc2c1=O [Example 89]	< 1000
